Experimental findings from patent US11912679B2, “Aryl alkynamide derivatives” (Astellas Pharma, Inc., priority 2022, dated 2024) are described below.

The test system of this test is IRF pathway of THP-1. The experiment in a line: Test on the activity of IRF pathway of THP-1 (THP1-Dual reporter cells stimulated with 2'3'-cGAMP). Type of test: cell-based. Particulars: Homo sapiens, PMA-treated, 2'3'-cGAMP 5 ug/mL, QUANTI-Luc readout, read-out: IC50 of inhibition of the activity of IRF pathway. How it is done: 0.3 uM of PMA (phorbol myristate acetate, SIGMA, P1585) was added to THP1-Dual™ cells (NF-κB-SEAP IRF-Luc Reporter Monocytes, Invivogen, thpd-nfis), and the cells were cultured at 37° C. for 1 day in RPMI1640 with 10% Fetal Bovine Serum (FBS). A compound with a known concentration was added, and the cells were incubated at room temperature for 1 hour. Mammalian (non-canonical) CDN, cyclic [G(2′,5′)pA(3′,5′)p] (2′3′-cGAMP, Invivogen, tlrl-nacga23) was added to a final concentration of 5 ug/mL, and the cells were cultured at 37° C. On the following day, QUANTI-Luc™ (Secreted luciferase detection medium, Invivogen, rep-qlc) was added to the culture solution and the activity of IRF pathway was measured using a microplate reader. The inhibition ratio at each concentration was determined, where the activity of IRF pathway with no addition of the test compound or 2′3′-cGAMP was defined as 100% inhibition and the activity of IRF pathway with no addition of the test compound and with addition of 2′3′-cGAMP was defined as 0% inhibition. The IC50 value was calculated by sigmoid […] model non-linear regression analysis.
For `O=C(C#Cc1ccc(-c2ccccc2)c(C(F)(F)F)c1)N1CCS(=O)(=O)CC1CO` (racemic) [Example 128, rac-(3R)-3-(hydroxymethyl)-4-{3-[2-(trifluoromethyl)[1,1′-biphenyl]-4-yl]prop-2-ynoyl}-1λ^6-thiomorpholine-1,1-dione], the half-maximal inhibitory concentration (IC50) was 70 nM. With `CN1CCN(C(=O)C#Cc2ccccc2-c2ccccc2)CC1` [Example 1, 3-([1,1′-biphenyl]-2-yl)-1-(4-methylpiperazin-1-yl)prop-2-yn-1-one], the 50% inhibitory concentration (IC50) was 13400 nM. The result for `CN1CCN(C(=O)C#Cc2cccc(-c3ccccc3)c2)CC1` [Example 2] reads 1090 nM; that for `CN1CCN(C(=O)C#Cc2ccc(-c3ccccc3)c(C(F)(F)F)c2)CC1` [Example 3], 155 nM; that for `CN1CCN(C(=O)C#Cc2ccc(-c3ccccc3)cn2)CC1` [Example 4], 236 nM.

Turning to `CN1CCN(C(=O)C#Cc2ccc(-c3ccccc3)nc2)CC1` [Example 5], the concentration for half-maximal inhibition (IC50) came out at 950 nM. The figure for `CN1CCN(C(=O)C#Cc2cnn(-c3ccccc3)c2C(F)(F)F)CC1` [Example 6] is 4820 nM.

For the molecule `CN1CCN(C(=O)C#Cc2cn(-c3ccccc3)nc2C(F)(F)F)CC1` [Example 7], the IC50 was determined as 2060 nM. The figure for `CN1CCN(C(=O)C#Cc2ccc(-n3cccn3)cc2)CC1` [Example 8] is 7750 nM; for `O=C(C#Cc1ccc(-c2ccccc2)c(C(F)(F)F)c1)N1CC(O)(CO)C1` [Example 9] it is 116 nM. The result for `O=C(C#Cc1ccc(-c2ccccc2)c(C(F)(F)F)c1)N[C@H]1COC[C@@H]1O` [Example 10] reads 182 nM; that for `O=C(C#Cc1ccc(-c2ccccc2)c(C(F)(F)F)c1)N[C@@H]1CCNC1=O` [Example 11], 146 nM. The figure for `O=C(C#Cc1ccc(-c2ccccc2)c(C(F)(F)F)c1)N[C@H]1CCNC1=O` [Example 12] is 385 nM; for `O=C(C#Cc1ccc(-c2ccccc2)c(C(F)(F)F)c1)N1CCN(C2CC2)CC1` [Example 13] it is 1540 nM; for `O=C(C#Cc1ccc(-c2ccccc2)c(C(F)(F)F)c1)N1CCN(C2COC2)CC1` [Example 14] it is 374 nM. On to `CC(C)N1CCN(C(=O)C#Cc2ccc(-c3ccccc3)c(C(F)(F)F)c2)CC1` [Example 15], for which the concentration for half-maximal inhibition (IC50) came to 237 nM. `O=C(C#Cc1ccc(-c2ccccc2)c(C(F)(F)F)c1)N1CCN(C2CCS(=O)(=O)C2)CC1` (stereo not drawn) [Example 16]: the IC50 turned out to be 229 nM. The figure for `O=C(C#Cc1ccc(-c2ccccc2)c(C(F)(F)F)c1)N[C@@H]1COC[C@H]1O` [Example 17] is 233 nM; for `O=C(C#Cc1ccc(C2=CCOCC2)c(C(F)(F)F)c1)N1C[C@@H](O)[C@@H](O)C1` [Example 18] it is 1410 nM; for `CN1CCN(C(=O)C#Cc2ccc(-c3ccccc3)cc2)CC1` [Example 19] it is 1390 nM. Consider `NC(=O)[C@@H]1CCN(C(=O)C#Cc2ccc(-c3ccccc3)c(C(F)(F)F)c2)C1` [Example 20, (3R)-1-{3-[2-(trifluoromethyl)[1,1′-biphenyl]-4-yl]prop-2-ynoyl}pyrrolidine-3-carboxamide], for which the half-inhibitory concentration (IC50) was determined as 244 nM.

As to `O=C(C#Cc1ccc(-c2ccccc2)c(C(F)(F)F)c1)N1CCOCC1` [Example 21], the IC50 was 295 nM. The figure for `O=C(C#Cc1ccc(-c2ccccc2)c(C(F)(F)F)c1)N1CCSCC1` [Example 22] is 210 nM; for `NC(=O)[C@H]1CCCN1C(=O)C#Cc1ccc(-c2ccccc2)c(C(F)(F)F)c1` [Example 23] it is 91 nM. The result for `NC(=O)[C@@H]1CCCN1C(=O)C#Cc1ccc(-c2ccccc2)c(C(F)(F)F)c1` [Example 24] reads 121 nM.

Turning to `NC(=O)[C@@H]1[C@@H](O)CCN1C(=O)C#Cc1ccc(-c2ccccc2)c(C(F)(F)F)c1` [Example 25], the concentration for half-maximal inhibition (IC50) came out at 158 nM. The figure for `O=C(C#Cc1ccc(-c2ccccc2)c(C(F)(F)F)c1)N1CCC(O)(CO)CC1` [Example 26] is 299 nM; for `NC(=O)[C@H]1CCN(C(=O)C#Cc2ccc(-c3ccccc3)c(C(F)(F)F)c2)C1` [Example 27] it is 216 nM; for `NC(=O)[C@@H]1C[C@H](O)CN1C(=O)C#Cc1ccc(-c2ccccc2)c(C(F)(F)F)c1` [Example 28] it is 95 nM. The figure for `CN(CC(N)=O)C(=O)C#Cc1ccc(-c2ccccc2)c(C(F)(F)F)c1` [Example 29] is 153 nM; for `NS(=O)(=O)CCNC(=O)C#Cc1ccc(-c2ccccc2)c(C(F)(F)F)c1` [Example 30] it is 159 nM.

For `CS(=O)(=O)NCCNC(=O)C#Cc1ccc(-c2ccccc2)c(C(F)(F)F)c1` [Example 31], the IC50 was determined as 115 nM. The figure for `CS(=O)(=O)NCCCNC(=O)C#Cc1ccc(-c2ccccc2)c(C(F)(F)F)c1` [Example 32] is 178 nM. Turning to `NC(=O)N1CCN(C(=O)C#Cc2ccc(-c3ccccc3)c(C(F)(F)F)c2)CC1` [Example 37], the IC50 came out at 195 nM. The figure for `O=C(C#Cc1ccc(-c2ccccc2)c(C(F)(F)F)c1)N1CCS(=O)(=O)CC1` [Example 38] is 88 nM; for `O=C(C#Cc1ccc(-c2ccccc2)c(C(F)(F)F)c1)NC(CO)CO` [Example 39] it is 351 nM; for `O=C(C#Cc1ccc(-c2ccc(OC(F)(F)F)cc2)c(C(F)(F)F)c1)NC[C@@H](O)CO` [Example 40] it is 422 nM. The result for `O=C(C#Cc1ccc(-c2ccc(OC(F)(F)F)cc2)c(C(F)(F)F)c1)NC[C@H](O)CO` [Example 41] reads 792 nM; that for `O=C(C#Cc1ccc(-c2ccccc2)c(C(F)(F)F)c1)N1CC(O)C1` [Example 42], 158 nM.

As for `NC(=O)[C@H](CO)NC(=O)C#Cc1ccc(-c2ccccc2)c(C(F)(F)F)c1` [Example 45, N^2-{3-[2-(trifluoromethyl)[1,1′-biphenyl]-4-yl]prop-2-ynoyl}-L-serinamide], the IC50 was 89 nM. The figure for `O=C(C#Cc1cnc(-c2ccccc2)c(C(F)(F)F)c1)N1C[C@@H](O)[C@@H](O)C1` [Example 47, 1-[(3R,4S)-3,4-dihydroxypyrrolidin-1-yl]-3-[6-phenyl-5-(trifluoromethyl)pyridin-3-yl]prop-2-yn-1-one] is 277 nM; for `O=C(C#Cc1ccc(-c2ccccc2)c(C(F)(F)F)c1)N(CCO)c1ccccc1` [Example 48] it is 91 nM; for `NC(=O)CNC(=O)C#Cc1ccc(-c2ccccc2)c(C(F)(F)F)c1` [Example 49] it is 231 nM. On to `NS(=O)(=O)c1cccc(NC(=O)C#Cc2ccc(-c3ccccc3)c(C(F)(F)F)c2)c1` [Example 50], for which the IC50 came out at 48 nM. The figure for `O=C(C#Cc1ccc(-c2ccccc2)c(C(F)(F)F)c1)N(CCO)C1CCOCC1` [Example 51] is 184 nM. As for `O=C(C#Cc1ccc(-c2ccccc2)c(C(F)(F)F)c1)N(CCO)C1CC1` [Example 52], the IC50 came out at 442 nM. As to `CC(C)N(CCO)C(=O)C#Cc1ccc(-c2ccccc2)c(C(F)(F)F)c1` [Example 53], the IC50 was determined as 550 nM.

In the case of `COc1ccc(N(CCO)C(=O)C#Cc2ccc(-c3ccccc3)c(C(F)(F)F)c2)cn1` [Example 54], the IC50 came out at 66 nM. The figure for `Cn1cc(N(CCO)C(=O)C#Cc2ccc(-c3ccccc3)c(C(F)(F)F)c2)cn1` [Example 55] is 83 nM. The result for `O=C(C#Cc1ccc(-c2cccc(OC(F)F)c2)c(C(F)(F)F)c1)N1C[C@H](O)[C@@H](O)C1` [Example 56] reads 256 nM; that for `O=C(C#Cc1ccc(-c2cccc(OC(F)F)c2)c(C(F)(F)F)c1)N[C@H]1COC[C@@H]1O` [Example 57], 381 nM.

As to `O=C(C#Cc1ccc(-c2cccc(OC(F)F)c2)c(C(F)(F)F)c1)N[C@@H]1COC[C@H]1O` [Example 58], the IC50 was 441 nM. The figure for `O=C(C#Cc1ccc(-c2ccccc2)c(C(F)(F)F)c1)N[C@@H]1COC[C@@H]1O` [Example 59] is 444 nM. Turning to `O=C(C#Cc1ccc(-c2ccccc2)c(C(F)(F)F)c1)N[C@H]1COC[C@H]1O` [Example 60], the IC50 amounted to 528 nM. The result for `O=C(C#Cc1ccc(-c2ccc(OC(F)F)cc2)c(C(F)(F)F)c1)N1C[C@@H](O)[C@H](O)C1` [Example 61] reads 611 nM; that for `O=C(C#Cc1ccc(-c2ccc(OC(F)F)cc2)c(C(F)(F)F)c1)N[C@H]1COC[C@@H]1O` [Example 62], 594 nM; that for `O=C(C#Cc1ccc(-c2ccc(OC(F)F)cc2)c(C(F)(F)F)c1)N[C@@H]1COC[C@H]1O` [Example 63], 422 nM. The figure for `O=C(C#Cc1ccc(-c2cccc(OC(F)F)c2)c(C(F)(F)F)c1)N1C[C@@H](O)[C@@H](O)C1` [Example 64] is 448 nM. The result for `O=C(C#Cc1ccc(-c2cccc(OC(F)F)c2)c(C(F)(F)F)c1)N1C[C@@H](O)[C@H](O)C1` [Example 65] reads 340 nM. `O=C(C#Cc1ccc(-c2ccccc2OC(F)(F)F)c(C(F)(F)F)c1)N1C[C@@H](O)[C@H](O)C1` [Example 66]: the IC50 is 48 nM.

Consider `O=C(C#Cc1ccc(-c2ccccc2OC(F)(F)F)c(C(F)(F)F)c1)N[C@H]1COC[C@@H]1O` [Example 67], for which the half-inhibitory concentration (IC50) amounted to 38 nM. The result for `O=C(C#Cc1ccc(-c2ccccc2OC(F)(F)F)c(C(F)(F)F)c1)N[C@@H]1COC[C@H]1O` [Example 68] reads 64 nM; that for `O=C(C#Cc1ccc(-c2ccccc2OC(F)(F)F)c(C(F)(F)F)c1)NCCO` [Example 69], 190 nM.

What is called IC50 is the point on the concentration scale where inhibition reaches its midpoint.
